Measurements reported in patent US8969343B2, “Histone demethylase inhibitors” (priority 2012, dated 2015).

target: T1, JMJD2C (Homo sapiens, UniProt Q9H3R0); test: JMJD2C in vitro enzyme inhibition assay (TR-FRET); assay type: biochemical; conditions: 0.3 nM JMJD2C, 300 nM H3K9me3-biotin peptide, 2 μM alpha-ketoglutaric acid
T1 sequence (Q9H3R0 2-372): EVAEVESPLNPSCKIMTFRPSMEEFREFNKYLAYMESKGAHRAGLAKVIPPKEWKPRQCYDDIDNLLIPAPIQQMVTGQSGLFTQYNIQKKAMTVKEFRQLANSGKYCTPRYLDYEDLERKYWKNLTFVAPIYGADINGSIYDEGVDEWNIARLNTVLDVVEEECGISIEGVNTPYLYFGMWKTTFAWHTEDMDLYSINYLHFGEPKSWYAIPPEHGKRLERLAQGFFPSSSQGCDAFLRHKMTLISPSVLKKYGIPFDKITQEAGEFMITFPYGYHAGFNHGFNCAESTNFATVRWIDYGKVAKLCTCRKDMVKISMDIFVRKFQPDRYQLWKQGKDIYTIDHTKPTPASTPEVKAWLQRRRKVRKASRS
Method: This assay determines the ability of a test compound to inhibit Jarid1A, Jarid1B, and JMJD2C demethylase activity.
Reaction product was determined quantitatively by TR-FRET after the addition of detection reagent Phycolink Streptavidin-allophycocyanin (Prozyme) and Europium-anti-di-methylated histone H3 lysine 9 (H3K9me2) antibody (PerkinElmer) in the presence of 5 mM EDTA in LANCE detection buffer (PerkinElmer) at a final concentration of 50 nM and 1 nM, respectively.
The assay reaction was initiated by the following: 2 μl of the mixture of 900 nM H3K9me3-biotin labeled peptide and 6 μM alpha-ketoglutaric acid with 2 μl of 11-point serial diluted inhibitor in 3% DMSO were added to each well of the plate, followed by the addition of 2 μl of 0.9 nM JMJD2C to initiate the reaction. The reaction mixture was incubated at room temperature for 30 minutes, and terminated by the addition of 6 μl of 5 mM EDTA in LANCE detection buffer containing 100 nM Phycolink Streptavidin-allophycocyanin and 2 nM Europium-anti-H3K9me2 antibody.

SMILES | IC50 [nM]
Cn1nc(Nc2cnccc2C(=O)O)c2cc(Cl)ccc21 [Example 4] | 100 to 1000
Cc1ccc2c(Nc3cnccc3C(=O)O)nn(C)c2c1 [Example 5, 3-[(1,6-dimethyl-1H-indazol-3-yl)amino]pyridine-4-carboxylic acid] | 100 to 1000
COc1ccc2c(Nc3cnccc3C(=O)O)nn(C)c2c1 [Example 8, 3-[(6-methoxy-1-methyl-1H-indazol-3-yl)amino]pyridine-4-carboxylic acid] | 100 to 1000
CCCn1nc(Nc2cnccc2C(=O)O)c2ccccc21 [Example 9, 3-[(1-propyl-1H-indazol-3-yl)amino]pyridine-4-carboxylic acid] | 100 to 1000
COCCn1nc(Nc2cnccc2C(=O)O)c2ccccc21 [Example 10, 3-{[1-(2-methoxyethyl)-1H-indazol-3-yl]amino}pyridine-4-carboxylic acid] | 100 to 1000
CCCn1nc(Nc2cnccc2C(=O)O)c2cc(F)ccc21 [Example 15, 3-[(5-fluoro-1-propyl-1H-indazol-3-yl)amino]pyridine-4-carboxylic acid] | 100 to 1000
O=C(O)c1ccncc1Nc1nn(CC2CC2)c2ccc(F)cc12 [Example 16, 3-{[1-(cyclopropylmethyl)-5-fluoro-1H-indazol-3-yl]amino}pyridine-4-carboxylic acid] | 100 to 1000
CCCCCn1nc(Nc2cnccc2C(=O)O)c2cc(F)ccc21 [Example 18, 3-[(5-fluoro-1-pentyl-1H-indazol-3-yl)amino]pyridine-4-carboxylic acid] | 100 to 1000
O=C(O)c1ccncc1Nc1nn(CCc2ccccc2)c2ccc(F)cc12 [Example 19, 3-{[5-fluoro-1-(2-phenethyl)-1H-indazol-3-yl]amino}pyridine-4-carboxylic acid] | 100 to 1000
O=C(O)c1ccncc1Nc1nn(CC2CCCO2)c2ccc(F)cc12 (centres unmarked) [Example 21, 3-{[5-fluoro-1-(tetrahydrofuran-2-ylmethyl)-1H-indazol-3-yl]amino}pyridine-4-carboxylic acid] | 100 to 1000
O=C(O)c1ccncc1Nc1nn(CC(F)(F)F)c2ccc(F)cc12 [Example 23, 3-{[5-fluoro-1-(2,2,2-trifluoroethyl)-1H-indazol-3-yl]amino}pyridine-4-carboxylic acid] | 100 to 1000
CC(C)Cn1nc(Nc2cnccc2C(=O)O)c2cc(F)ccc21 [Example 25, 3-{[5-fluoro-1-(2-methylpropyl)-1H-indazol-3-yl]amino}pyridine-4-carboxylic acid] | 100 to 1000
CCC(C)n1nc(Nc2cnccc2C(=O)O)c2cc(F)ccc21 (centres unmarked) [Example 26, 3-{[5-fluoro-1-(butan-2-yl)-1H-indazol-3-yl]amino}pyridine-4-carboxylic acid] | 100 to 1000
O=C(O)c1ccncc1Nc1nn(CC2CCC2)c2ccc(F)cc12 [Example 28, 3-{[1-(cyclobutylmethyl)-5-fluoro-1H-indazol-3-yl]amino}pyridine-4-carboxylic acid] | 100 to 1000
O=C(O)c1ccncc1Nc1nn(C2CCCC2)c2ccc(F)cc12 [Example 29, 3-[(1-cyclopentyl-5-fluoro-1H-indazol-3-yl)amino]pyridine-4-carboxylic acid] | 100 to 1000
O=C(O)c1ccncc1Nc1nn(CC2CCCC2)c2ccc(F)cc12 [Example 30, 3-{[1-(cyclopentylmethyl)-5-fluoro-1H-indazol-3-yl]amino}pyridine-4-carboxylic acid] | 100 to 1000
O=C(O)c1ccncc1Nc1nn(CCC2CC2)c2ccc(F)cc12 [Example 31, 3-{[1-(cyclopropylethyl)-5-fluoro-1H-indazol-3-yl]amino}pyridine-4-carboxylic acid] | 100 to 1000
O=C(O)c1ccncc1Nc1nn(CCC(F)(F)F)c2ccc(F)cc12 [Example 32, 3-{[5-fluoro-1-(3,3,3-trifluoropropyl)-1H-indazol-3-yl]amino}pyridine-4-carboxylic acid] | 100 to 1000
CCCn1nc(Nc2cnccc2C(=O)O)c2cc(Cl)ccc21 [Example 33, 3-[(5-chloro-1-propyl-1H-indazol-3-yl)amino]pyridine-4-carboxylic acid] | 100 to 1000

SMILES | IC50 [nM]
O=C(O)c1ccncc1Nc1nn(CC2CC2)c2ccc(Cl)cc12 [Example 34, 3-{[5-chloro-1-(cyclopropylmethyl)-1H-indazol-3-yl]amino}pyridine-4-carboxylic acid] | 100 to 1000
O=C(O)c1ccncc1Nc1nn(CCC(F)(F)F)c2ccc(Cl)cc12 [Example 35, 3-{[5-chloro-1-(3,3,3-trifluoropropyl)-1H-indazol-3-yl]amino}pyridine-4-carboxylic acid] | 100 to 1000
CCn1nc(Nc2cnccc2C(=O)O)c2cc(C)ccc21 [Example 36, 3-[(1-ethyl-5-methyl-1H-indazol-3-yl)amino]pyridine-4-carboxylic acid] | 100 to 1000
Cc1ccc2c(c1)c(Nc1cnccc1C(=O)O)nn2CC1CC1 [Example 37, 3-{[1-(cyclopropylmethyl)-5-methyl-1H-indazol-3-yl]amino}pyridine-4-carboxylic acid] | 100 to 1000
CCCn1nc(Nc2cnccc2C(=O)O)c2cc(C)ccc21 [Example 38, 3-[(5-methyl-1-propyl-1H-indazol-3-yl)amino]pyridine-4-carboxylic acid] | 100 to 1000
Cc1ccc2c(c1)c(Nc1cnccc1C(=O)O)nn2CCC(F)(F)F [Example 39, 3-{[5-methyl-1-(3,3,3-trifluoropropyl)-1H-indazol-3-yl]amino}pyridine-4-carboxylic acid] | 100 to 1000
Cn1cc(Nc2cnccc2C(=O)O)c2cccnc21 [Example 52, 3-[(1-methyl-1H-pyrrolo[2,3-b]pyridine-3-yl)amino]pyridine-4-carboxylic acid] | 100 to 1000
CCCn1cc(Nc2cnccc2C(=O)O)c2cc(F)ccc21 [Example 57, 3-[(5-fluoro-1-propyl-1H-indol-3-yl)amino]pyridine-4-carboxylic acid] | 100 to 1000
O=C(O)c1ccncc1Nc1cn(CCC(F)(F)F)c2ccc(Cl)cc12 [Example 59, 3-{[5-chloro-1-(3,3,3-trifluoropropyl)-1H-indol-3-yl]amino}pyridine-4-carboxylic acid] | 100 to 1000
O=C(O)c1ccncc1Nc1nn(C2CCOCC2)c2ccc(F)cc12 [Example 62, 3-{[5-fluoro-1-(tetrahydro-2H-pyran-4-yl)-1H-indazol-3-yl]amino}pyridine-4-carboxylic acid] | 100 to 1000
O=C(O)c1ccncc1Nc1nn(C2CCCOC2)c2ccc(F)cc12 (centres unmarked) [Example 63, 3-{[5-fluoro-1-(tetrahydro-2H-pyran-3-yl)-1H-indazol-3-yl]amino}pyridine-4-carboxylic acid] | 100 to 1000
O=C(O)c1ccncc1Nc1cn(C2CCOC2)c2ccc(F)cc12 (centres unmarked) [Example 68, 3-{[5-fluoro-1-(tetrahydrofuran-3-yl)-1H-indol-3-yl]amino}pyridine-4-carboxylic acid] | 100 to 1000
O=C(O)c1ccncc1Nc1nn(C2CCOC2)c2ccc(Cl)cc12 (centres unmarked) [Example 69, 3-{[5-chloro-1-(tetrahydrofuran-3-yl)-1H-indazol-3-yl]amino}pyridine-4-carboxylic acid] | 100 to 1000
N#CNC(=O)c1ccncc1Nc1nn([C@H]2CCOC2)c2ccc(F)cc12 [Example 70, N-cyano-3-({5-fluoro-1-[(3S)-tetrahydrofuran-3-yl]-1H-indazol-3-yl}amino)pyridine-4-carboxamide] | 1000 to 10000
N#CNC(=O)c1ccncc1Nc1nn(CCN2CCC(F)(F)C2)c2ccc(F)cc12 [Example 72, N-cyano-3-({1-[2-(3,3-difluoropyrrolidin-1 yl)ethyl]-5-fluoro-1H-indazol-3-yl}amino)pyridine-4-carboxamide] | 1000 to 10000
N#CNC(=O)c1ccncc1Nc1nn(CCN2CCC(F)(F)CC2)c2ccc(F)cc12 [Example 74, N-cyano-3-({1-[2-(4,4-difluoropiperidin-1 yl)ethyl]-5-fluoro-1H-indazol-3-yl}amino)pyridine-4-carboxamide] | 1000 to 10000
CC(C)Cn1nc(Nc2cnccc2C(=O)NC#N)c2cc(F)ccc21 [Example 75, N-cyano-3-{[5-fluoro-1-(2-methylpropyl)-1H-indazol-3-yl]amino}pyridine-4-carboxamide] | 1000 to 10000
CN(C)CCCCn1nc(Nc2cnccc2C(=O)NC#N)c2cc(F)ccc21 [Example 76, N-cyano-3-({1-[4-(dimethylamino)butyl]-5-fluoro-1H-indazol-3-yl}amino)pyridine-4-carboxamide] | 100 to 1000
N#CNC(=O)c1ccncc1Nc1nn(CCN2CCCC2)c2ccc(Cl)cc12 [Example 79, N-cyano-3-({5-chloro-1-[2-(pyrrolidin-1-yl)ethyl]-1H-indazol-3-yl}amino)pyridine-4-carboxamide] | 100 to 1000
